Source: patent US6962976B2, “Human TREK2, a stretch- and arachidonic acid-sensitive K+ channel activated by inhalational anesthetics and niluzole” (Centre National de la Recherche Scientifique-CNRS, priority 2000, dated 2005)

What was measured:
TREK2 = target: T1, TREK2 (Homo sapiens, UniProt P57789); experiment: Whole-cell patch-clamp of TREK2 currents in transfected COS cells; assay type: cell-based; details: for effect on TREK2 current in COS cells transfected with only TREK2: no receptor co-expressed; for activation of TREK2 by fatty acids and lysophospholipids (in words): whole-cell current
T1 construct: expressed in transfected cells; host or cells: COS cells
T1 sequence (P57789 1-538): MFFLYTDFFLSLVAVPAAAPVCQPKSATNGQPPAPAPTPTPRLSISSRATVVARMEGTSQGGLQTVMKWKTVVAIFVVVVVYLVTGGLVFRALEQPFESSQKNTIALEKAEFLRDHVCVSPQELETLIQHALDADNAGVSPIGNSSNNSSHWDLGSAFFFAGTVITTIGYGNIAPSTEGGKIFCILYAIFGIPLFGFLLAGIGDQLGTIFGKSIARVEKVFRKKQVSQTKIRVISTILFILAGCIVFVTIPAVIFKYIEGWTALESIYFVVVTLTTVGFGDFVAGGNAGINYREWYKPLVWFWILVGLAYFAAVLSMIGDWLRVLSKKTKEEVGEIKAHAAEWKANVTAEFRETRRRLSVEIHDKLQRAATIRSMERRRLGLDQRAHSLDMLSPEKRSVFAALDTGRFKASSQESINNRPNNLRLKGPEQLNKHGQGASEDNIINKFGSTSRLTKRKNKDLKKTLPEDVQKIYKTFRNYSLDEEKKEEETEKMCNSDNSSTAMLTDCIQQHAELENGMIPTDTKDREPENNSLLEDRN
Procedure: For inside-out patch recordings, pipettes were filled with the EXT solution and the bathing solution was the INT solution buffered either at pH 7.3 or at pH 5.6 in the internal acidosis experiments. Cells were continuously superfused with a microperfusion system during the experiment (0.2 ml per min) done at room temperature. A RK400 patch-clamp amplifier was used for whole-cell and single-channel recordings (Bio-Logic, Claix, France). Single-channel data were low-pass filtered at 5 KHz and digitized at 50 KHz using a DAT recorder (Bio-Logic, Claix, France). pClamp software was used to analyze whole-cell data and Biopatch software (Bio-Logic) to analyze single-channel data.
Concentrations of volatile anesthetics were adjusted from saturated solutions (isoflurane, 15.3 mM; halothane, 17.5 mM and chloroform, 66.6 mM) in saline at room temperature (16). Mechanical stimulation was applied through an open loop pressure generating system and monitored at the level of the patch pipette by a calibrated pressure sensor (17).

[1] = test system: TREK2 co-expressed with mGluR2; experiment: Whole-cell TREK2 current, TREK2 co-expressed with Gi-coupled mGluR2 in COS cells; assay type: cell-based, human
Procedure: (§1) The voltage-clamp protocol consists of a voltage-ramp of 800 ms duration starting from a holding potential of −80 mV applied every 10 s. The current was monitored at +100 mV.
(§2) COS cells were seeded at a density of 20,000 cells per 35 mm dish, 24 h prior transfection. Cells were transiently transfected by the classical DEAE-dextran method with 0.2 μg of pIRES-CD8. TREK2 with or without mGluR1, mGluR2 or 5HT4sR expression vectors (a generous gift of Drs J P Pin and A Dumuis, Montpellier, France).
(§3) Transfected cells were visualized 48 h after transfection using the anti-CD8 antibody-coated beads method.
(§4) TREK2 was co-expressed with 5HT4sR, a Gs-coupled receptor. […] A third type of G-protein coupled receptor was co-expressed with TREK2. This receptor is the Gq-coupled mGluR1 receptor. […] The Gq-protein is commonly associated with activation of phospholipase C and the consequent production of diacylglycerol (DAG) and inositol 1,4,5-triphosphate (IP 3). Ultimately, DAG leads to activation of PKC and IP 3 to an increase of intracellular Ca^2+.

TREK1 = target: T2, TREK1 (Homo sapiens, UniProt O95069); details: cited from earlier work
T2 sequence (O95069 1-426): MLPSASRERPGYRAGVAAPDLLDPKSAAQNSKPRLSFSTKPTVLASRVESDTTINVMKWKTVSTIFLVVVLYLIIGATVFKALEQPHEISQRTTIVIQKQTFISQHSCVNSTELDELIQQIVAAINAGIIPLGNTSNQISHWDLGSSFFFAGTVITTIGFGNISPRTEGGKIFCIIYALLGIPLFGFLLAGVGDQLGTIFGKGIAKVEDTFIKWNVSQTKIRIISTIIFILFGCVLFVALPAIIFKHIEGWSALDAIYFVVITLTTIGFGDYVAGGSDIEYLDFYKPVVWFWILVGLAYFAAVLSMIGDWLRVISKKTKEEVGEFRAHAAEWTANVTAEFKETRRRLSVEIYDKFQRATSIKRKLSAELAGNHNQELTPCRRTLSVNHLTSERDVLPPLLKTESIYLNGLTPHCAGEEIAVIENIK

TRAAK = target: T3, TRAAK (Homo sapiens, UniProt Q9NYG8); details: cited from earlier work
T3 sequence (Q9NYG8 1-393): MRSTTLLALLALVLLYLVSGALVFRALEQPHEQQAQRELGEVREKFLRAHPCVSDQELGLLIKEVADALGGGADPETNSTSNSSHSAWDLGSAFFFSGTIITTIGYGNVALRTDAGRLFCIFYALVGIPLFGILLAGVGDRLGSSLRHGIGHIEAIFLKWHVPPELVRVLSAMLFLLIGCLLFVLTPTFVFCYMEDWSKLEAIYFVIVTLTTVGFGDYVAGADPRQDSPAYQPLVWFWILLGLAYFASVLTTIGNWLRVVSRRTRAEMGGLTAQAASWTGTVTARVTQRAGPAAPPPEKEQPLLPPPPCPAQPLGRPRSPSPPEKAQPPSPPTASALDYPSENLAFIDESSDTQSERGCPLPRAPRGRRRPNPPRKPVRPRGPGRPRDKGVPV

[2] = test system: TREK2 co-expressed with 5HT4sR
Procedure: as §1, §2, §3, §4

[3] = 1 mM, 0 mV (voltage given for halothane only)

FC(F)OC(Cl)C(F)(F)F (centres unmarked) [isoflurane]
fold increase of TREK2 current (TREK2; [3]): 1.9±0.1 fold increase

N[C@@H](CCC(=O)O)C(=O)O [glutamate]
effect on TREK2 activity after receptor activation [1]: stimulation of TREK2 activity | time to reverse the TREK2 increase after washing [1]: more than 10 minutes | effect on TREK2 current in COS cells transfected with only TREK2 (TREK2): No effect

Nc1ncnc2c1nc(Sc1ccc(Cl)cc1)n2[C@@H]1O[C@@H]2COP(=O)(O)O[C@H]2[C@H]1O [CPT-cAMP]
inhibition of TREK2 activity (TREK2; 500 μM, at 0 mV, n=8): 50±5%

lysophosphatidylcholine
activation of TREK2 by fatty acids and lysophospholipids (in words) (TREK2): activated

CCCCC/C=C\C/C=C\CCCCCCCC(=O)O [linoleic acid]
activation of TREK2 by fatty acids and lysophospholipids (in words) (TREK2): activated

CC[N+](CC)(CC)CC [tetraethylammonium]
sensitivity of TREK2 currents (TREK2; 10 mM): insensitive

CCCCCCCCCCCCCC(=O)O[C@@H]1[C@@H](C)[C@@]2(O)[C@@H](C=C(CO)C[C@]3(O)C(=O)C(C)=C[C@@H]23)[C@@H]2C(C)(C)[C@]12OC(C)=O [PMA]
inhibition of TREK2 (in words) (TREK2; 100 nM): neither the application of the PKC-activator PMA (100 nM) nor the addition of Ca^2+ in the recording pipette (1 μM) were able to induce an inhibition

Nc1nc2ccc(OC(F)(F)F)cc2s1 [riluzole]
activation of TREK1 (in words) (TREK1): transiently activated | effect on TREK2 current (in words) (TREK2; current monitored at +100 mV): activated | time course of TREK2 activation (in words) (TREK2; followed by a decrease of the activity corresponding to an inhibition): transient | activation of TRAAK (in words) (TRAAK): permanently activated

C=C[C@H]1C[N@@]2CC[C@H]1C[C@@H]2[C@@H](O)c1ccnc2ccc(OC)cc12 [Quinidine]
inhibition at 100 µM (TREK2; COS, 100 μM): 50%

lysophosphatidylinositol
fold increase of TREK2 current (TREK2; 10 μM, at 0 mV): 5.1±0.6 fold increase

NCCc1c[nH]c2ccc(O)cc12 [5-HT, 5-hydroxytryptamine]
effect on TREK2 current in COS cells transfected with only TREK2 (TREK2): No effect | effect on TREK2 activity after receptor activation [2]: decrease of TREK2 activity

CCCCCCCCCCCCCCCC(=O)O [palmitic acid]
activation of TREK2 by fatty acids and lysophospholipids (in words) (TREK2): not

CCCCC/C=C\C/C=C\C/C=C\C/C=C\CCCC(=O)O [arachidonic acid]
fold increase of TREK2 current (TREK2; 10 μM, at 0 mV): 8.4±1.9 fold increase

FC(F)(F)C(Cl)Br (centres unmarked) [halothane]
fold increase of TREK2 current (TREK2; 0.25 mM, at +100 mV, n=10): 1.4±0.1 fold increase | fold increase of TREK2 current (TREK2; 0.5 mM, at +100 mV, n=10): 2.6±0.3 fold increase | fold increase of TREK2 current (TREK2; [3]): 2.3±0.3 fold increase

[Ba+2] [Ba^2+]
sensitivity of TREK2 currents (TREK2; 1 mM): insensitive

[Ca+2] [Ca^2+]
inhibition of TREK2 (in words) (TREK2; 1 μM in the recording pipette): nor the addition of Ca^2+ in the recording pipette (1 μM) were able to induce an inhibition

ClC(Cl)Cl [chloroform]
relative efficiency of anesthetics on TREK1 (TREK1; 1 mM): more effective than halothane and isoflurane | fold increase of TREK2 current (TREK2; [3]): 1.8±0.1 fold increase
